The target in data set [1] is HA H1 A/California/07/09 (Influenza A virus (A/California/07/2009(H1N1)), UniProt C3W5X2). The data set is described as follows: biochemical. The following applies: Competition binding (AlphaLISA), pIC50 H1 A/California/07/09.
Data set [2] deals with H1N1 A/California/07/09. The data set is described as follows: microbe, parasite or virus in culture. The following applies: Influenza A virus, H1N1, MDCK, 96 h, read-out: Virus neutralization assay (VNA), pEC50 H1N1 A/California/07/09 (converted). The format is cell-based, influenza A virus.
Data set [3] deals with HA H5 A/Vietnam/1203/04 (Influenza A virus (A/Vietnam/1203/2004(H5N1)), UniProt Q5EP31). The data set is described as follows: biochemical. The note with it: Competition binding (AlphaLISA), pIC50 H5 A/Vietnam/1203/04.
Data set [4] deals with HA H1 A/New Caledonia/20/99 (Influenza A virus (A/New Caledonia/20/1999(H1N1)), UniProt Q6WG00). The data set is described as follows: biochemical. The following applies: Competition binding (AlphaLISA), pIC50 H1 A/New Caledonia/20/99. On the technique in general: In Alpha technology, singlet oxygen from a donor bead excites a nearby acceptor bead.
Data set [5] is described as follows: in vitro. The following applies: dog, Cytotoxicity (pCC50) MDCK.
The subject of data set [6] is H1N1 A/New Caledonia/20/99. The data set is described as follows: microbe, parasite or virus in culture. The format is cell-based, influenza A virus. The following applies: Influenza A virus, H1N1, MDCK, 96 h, read-out: Virus neutralization assay (VNA), pEC50 H1N1 A/New Caledonia/20/99 (converted).
Data set [7] has as its system H5N1 A/Vietnam/1203/04. The data set is described as follows: microbe, parasite or virus in culture. Type of data set: cell-based, influenza A virus. The note with it: Influenza A virus, H5N1, MDCK, 96 h, read-out: Virus neutralization assay (VNA), pEC50 H5N1 A/Vietnam/1203/04, MDCK cells, 96 h, CPE by ATPlite (converted); average of repeats. Background: ATP-based viability assays read luminescence as a measure of living cells.

Usually IC50 stands for the concentration at which inhibition is half-maximal. Low readings indicate greater potency in that assay, high ones weaker potency in that assay. For orientation: CC50 means the concentration giving 50% cytotoxicity. Lower therefore signals harm at low concentration. As for `COc1nnc(C(c2ccccc2)N2CCN(C(=O)c3cc(-c4nc5cc(OC(F)(F)F)ccc5o4)ccn3)CC2)o1` (centres unmarked) [Example 21], the IC50 in data set [1] is 15.8 nM; in data set [3], 794 nM; in data set [4] it was 20 nM. For the same molecule, the EC50 in data set [2] was 100 nM; in data set [6] it was 79.4 nM; in data set [7], 6310 nM. The same molecule showed a CC50 in data set [5] of 12600 nM.

Regarding `COC(=O)C(c1ccccc1)N1CCN(C(=O)c2cccc(-c3nc4cc(OC(F)(F)F)ccc4o3)c2)CC1` (centres unmarked) [Example 23], the IC50 in data set [1] was 20 nM; in data set [3], 398 nM; in data set [4] it was 10 nM. The results for the EC50 in data set [2], in data set [6] and in data set [7] were 158 nM, 126 nM and 20000 nM, respectively. The molecule also yielded a CC50 in data set [5] of over 50100 nM.

`COC(=O)C(c1ccccc1)N1CCN(C(=O)c2cccc(-c3nc4ncccc4o3)c2)CC1` (centres unmarked) [Example 24]: the IC50 was 63.1 nM in data set [1], 3160 nM in data set [3] and 39.8 nM in data set [4]. Also, the EC50 in data set [2] is 158 nM; in data set [6], 126 nM; in data set [7], 12600 nM. In data set [5], this molecule returned a half-maximal cytotoxic concentration (CC50) of over 50100 nM.

As for `COc1ccc2oc(-c3ccnc(C(=O)N4CCN(C(c5ccccc5)c5nnc(C)o5)CC4)c3)nc2c1` (centres unmarked) [Example 25], the IC50 in data set [1] was 15.8 nM; in data set [3] it was 794 nM; in data set [4], 25.1 nM. In addition, the values for the EC50 in data set [2], in data set [6] and in data set [7] were 63.1 nM, 79.4 nM and 3980 nM, respectively. The molecule also gave a 50% cytotoxic concentration (CC50) in data set [5] of 25100 nM.

As to `COC(=O)[C@@H](c1ccccc1)N1CCN(C(=O)c2cccc(-c3nc4cc(C(F)(F)F)ccc4o3)c2)CC1` [Example 26], the IC50 is 25.1 nM in data set [1], 501 nM in data set [3] and 20 nM in data set [4]. Besides, the EC50 in data set [2] was 158 nM; in data set [6], 158 nM; in data set [7] it was 7940 nM. In data set [5], the CC50 was over 50100 nM.

For the molecule `Cc1nnc(C(c2ccccc2)N2CCN(C(=O)c3cc(-c4nc5cc(OC(F)(F)F)ccc5o4)ccn3)CC2)o1` (centres unmarked) [Example 28], the IC50 in data set [1] is 15.8 nM; in data set [3] it was 501 nM; in data set [4], 20 nM. In addition, the EC50 was 200 nM in data set [2], 158 nM in data set [6] and 3980 nM in data set [7]. Also, in data set [5], the CC50 is 15800 nM.

In the case of `COC(=O)C(c1ccccc1)N1CCN(C(=O)c2cccc(-c3nc4cc(O)ccc4o3)c2)CC1` (centres unmarked) [Example 30], the IC50 was 25.1 nM in data set [1], 631 nM in data set [3] and 25.1 nM in data set [4]. In addition, the EC50 in data set [2] was 251 nM; in data set [6] it was 158 nM; in data set [7], 7940 nM. The molecule further showed a CC50 in data set [5] of 25100 nM.

For the molecule `COC(=O)C(c1ccccc1)N1CCN(C(=O)c2cccc(-c3nc4ccccc4o3)c2)CC1` (centres unmarked) [Example 31], the values for the IC50 in data set [1], in data set [3] and in data set [4] were 31.6 nM, 1260 nM and 25.1 nM, respectively. The EC50 in data set [2] was 316 nM; in data set [6] it was 158 nM; in data set [7] it was 7940 nM. Besides, the CC50 in data set [5] was over 50100 nM.

Turning to `Cc1nnc([C@@H](c2ccccc2)N2CCN(C(=O)c3cccc(-c4nc5c(C)cccc5o4)c3)CC2)o1` [Example 32], the values for the IC50 in data set [1], in data set [3] and in data set [4] were 63.1 nM, 3980 nM and 79.4 nM, respectively. In addition, the EC50 in data set [2] is 316 nM; in data set [6] it was 158 nM; in data set [7], 25100 nM. The same molecule had a CC50 in data set [5] of 15800 nM.

In the case of `COC(=O)[C@@H](c1ccccc1)N1CCN(C(=O)c2cccc(-c3nc4ccccc4s3)c2)CC1` [Example 33], the IC50 was 50.1 nM in data set [1], 398 nM in data set [3] and 31.6 nM in data set [4]. For the same molecule, the EC50 in data set [2] is 501 nM; in data set [6], 158 nM; in data set [7], 7940 nM. In data set [5], this molecule showed a CC50 of 39800 nM.

Take `O=C(c1cc(-c2nc3cc(C(F)(F)F)ccc3o2)ccn1)N1CCN(C(c2ccccc2)c2nnc(C3CC3)o2)CC1` (centres unmarked) [Example 34]: the IC50 was 31.6 nM in data set [1], 1260 nM in data set [3] and 63.1 nM in data set [4]. For the same molecule, the EC50 was 126 nM in data set [2], 251 nM in data set [6] and 12600 nM in data set [7]. Also, in data set [5], the CC50 is 39800 nM.

For `Cc1nnc(C(c2ccccc2)N2CCN(C(=O)c3cccc(-c4nc5cc(N(C)C)ccc5o4)c3)CC2)o1` (centres unmarked) [Example 35], the IC50 in data set [1] was 15.8 nM; in data set [3], 631 nM; in data set [4] it was 15.8 nM. For the same molecule, the values for the EC50 in data set [2], in data set [6] and in data set [7] were 200 nM, 158 nM and 6310 nM, respectively. It took 25100 nM to reach half-maximal cytotoxicity in data set [5] (CC50).

`COc1ccc2oc(-c3cccc(C(=O)N4CCN(C(c5ccccc5)c5nnc(C)o5)CC4)c3)nc2c1` (centres unmarked) [Example 36]: the figures for the half-maximal inhibitory concentration (IC50) in data set [1], in data set [3] and in data set [4] were 25.1 nM, 1000 nM and 25.1 nM, respectively. Besides, the EC50 is 158 nM in data set [2], 126 nM in data set [6] and 7940 nM in data set [7]. Also, half-maximal cytotoxicity in data set [5] (CC50) was put at 20000 nM.

On to `COC(=O)[C@@H](c1ccccc1)N1CCN(C(=O)c2cccc(-c3nc4cc(C(F)(F)F)ccc4o3)c2)[C@H](C)C1` [Example 37], for which the IC50 in data set [1] is 63.1 nM; in data set [3] it was 1580 nM; in data set [4] it was 50.1 nM. Besides, the EC50 in data set [2] was 251 nM; in data set [6], 251 nM; in data set [7], 31600 nM. For the same molecule, in data set [5], the CC50 is over 50100 nM.

`Cc1nnc([C@@H](c2ccccc2)N2CCN(C(=O)c3cccc(-c4ncc5ccccc5n4)c3)CC2)o1` [Example 38]: the IC50 in data set [1] was 50.1 nM; in data set [3] it was 2000 nM; in data set [4] it was 50.1 nM. Besides, the EC50 in data set [2] is 316 nM; in data set [6] it was 200 nM; in data set [7] it was 7940 nM. Besides, in data set [5], the CC50 is over 50100 nM.

As to `CNc1ccc2oc(-c3cccc(C(=O)N4CCN(C(c5ccccc5)c5nnc(C)o5)CC4)c3)nc2c1` (centres unmarked) [Example 39], the IC50 in data set [1] is 25.1 nM; in data set [3], 1580 nM; in data set [4] it was 31.6 nM. Besides, the EC50 in data set [2] was 316 nM; in data set [6] it was 200 nM; in data set [7], 10000 nM. For the same molecule, it took 15800 nM to reach half-maximal cytotoxicity in data set [5] (CC50).

In the case of `Cc1nnc(C(c2ccccc2)N2CCN(C(=O)c3cc(-c4nc5cc(C(F)(F)F)ccc5o4)ccn3)CC2)o1` (centres unmarked) [Example 40], the IC50 in data set [1] was 31.6 nM; in data set [3], 1260 nM; in data set [4] it was 50.1 nM. Further, the figures for the EC50 in data set [2], in data set [6] and in data set [7] were 158 nM, 251 nM and 10000 nM, respectively. Also, in data set [5], half-maximal cytotoxicity (CC50) was put at 12600 nM.

As for `COC(=O)C(c1ccccc1)N1CCN(C(=O)c2cccc(-c3nc4cc(C(F)(F)F)ccc4o3)c2)CC1` (centres unmarked) [Example 42], the IC50 was 39.8 nM in data set [1], 1000 nM in data set [3] and 39.8 nM in data set [4]. Further, the figures for the EC50 in data set [2], in data set [6] and in data set [7] were 316 nM, 251 nM and 15800 nM, respectively. The same molecule displayed a CC50 in data set [5] of over 50100 nM.

In the case of `COC(=O)C(c1ccccc1)N1CCN(C(=O)c2cccc(-c3nc4ccncc4o3)c2)CC1` (centres unmarked) [Example 43], the IC50 in data set [1] is 31.6 nM; in data set [3] it was 1260 nM; in data set [4], 25.1 nM. Moreover, the values for the EC50 in data set [2], in data set [6] and in data set [7] were 398 nM, 251 nM and 10000 nM, respectively. Further, the CC50 in data set [5] is over 50100 nM.

Turning to `Cc1nnc(C(c2ccccc2)N2CCN(C(=O)c3cccc(-c4nc5cc(O)ccc5o4)c3)CC2)o1` (centres unmarked) [Example 44], the IC50 in data set [1] is 50.1 nM; in data set [3], 1580 nM; in data set [4], 50.1 nM. Moreover, the EC50 in data set [2] was 398 nM; in data set [6], 316 nM; in data set [7] it was 12600 nM. In data set [5], this molecule showed a CC50 of 39800 nM.

For the molecule `Cc1nnc([C@@H](c2ccccc2)N2CCN(C(=O)c3cc(-c4nc5cc(C(F)(F)F)ccc5o4)ccc3F)CC2)o1` [Example 45], the IC50 in data set [1] is 63.1 nM; in data set [3], 7940 nM; in data set [4], 100 nM. Also, the EC50 is 251 nM in data set [2], 316 nM in data set [6] and 50100 nM in data set [7]. In data set [5], this molecule gave a CC50 of over 50100 nM.

For the molecule `COC(=O)[C@H](c1ccccc1)N1CCN(C(=O)c2cccc(-c3nc4cc(C(F)(F)F)ccc4o3)c2)[C@H](C(N)=O)C1` [Example 46], the 50% inhibitory concentration (IC50) in data set [1] was 31.6 nM; in data set [3], 794 nM; in data set [4], 31.6 nM. For the same molecule, the EC50 was 200 nM in data set [2], 158 nM in data set [6] and 15800 nM in data set [7]. Also, in data set [5], the CC50 is 39800 nM.

On to `Cc1nnc(C(c2ccccc2)N2CCN(C(=O)c3cccc(-c4nc5cc(F)ccc5o4)c3)CC2)o1` (centres unmarked) [Example 47], for which the IC50 in data set [1] was 79.4 nM; in data set [3], 10000 nM; in data set [4], 79.4 nM. For the same molecule, the EC50 in data set [2] was 398 nM; in data set [6], 316 nM; in data set [7], 15800 nM. Moreover, in data set [5], the CC50 is 31600 nM.

These data come from US11040963B2 (priority 2017, dated 2021).
